PMC12605127, “Cyclopropane xenolipids resemble monounsaturated fatty acids and modulate peroxisome proliferator-activated receptors” (Journal of Lipid Research, 2025)
Read-outs that look alike come from different tables or passages of the source.

Columns and labels:
[1] = target: T1, human PPARδ (Homo sapiens, UniProt Q03181); test: LanthaScreen TR-FRET coactivator recruitment assay, PPARδ LBD (C33 peptide); type: biochemical; details: for Emax: read-out: Emax, maximum efficacy, PPARδ; for EC50: TR-FRET coactivator recruitment, human PPARδ LBD, read-out: EC50, half maximal effective concentration, PPARδ
T1 construct: purchased ThermoFisher Scientific PV4685
T1 sequence (Q03181 211-439 limits assumed): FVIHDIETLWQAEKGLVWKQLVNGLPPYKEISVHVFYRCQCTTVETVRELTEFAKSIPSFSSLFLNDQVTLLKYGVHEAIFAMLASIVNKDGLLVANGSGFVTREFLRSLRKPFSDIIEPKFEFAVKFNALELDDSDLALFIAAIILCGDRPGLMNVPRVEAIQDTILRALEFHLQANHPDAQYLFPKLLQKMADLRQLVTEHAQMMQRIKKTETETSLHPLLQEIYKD

[2] = target: T2, human PPARα (Homo sapiens, UniProt Q07869); test: LanthaScreen TR-FRET coactivator recruitment assay, PPARα LBD (PGC1α peptide); type: biochemical; details: for Emax: read-out: Emax, maximum efficacy, PPARα; for EC50: TR-FRET coactivator recruitment, human PPARα LBD, read-out: EC50, half maximal effective concentration, PPARα
T2 construct: purchased ThermoFisher Scientific PV4684
T2 sequence (Q07869 239-466 limits assumed): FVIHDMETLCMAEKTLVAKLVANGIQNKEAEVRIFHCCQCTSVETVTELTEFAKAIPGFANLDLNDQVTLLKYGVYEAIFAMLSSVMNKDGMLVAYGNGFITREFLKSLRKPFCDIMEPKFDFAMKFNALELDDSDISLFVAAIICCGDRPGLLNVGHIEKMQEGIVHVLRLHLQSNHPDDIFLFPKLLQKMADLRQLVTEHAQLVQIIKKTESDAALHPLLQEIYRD

[3] = system: Angptl4; test: Angptl4 mRNA expression (qPCR) in 3T3-L1 preadipocytes, without and with PPAR antagonists; type: cell-based, murine; details: agonist and antagonist both 10 μM, 3T3-L1 cells
[4] = target: PPARγ; design: method as in PMID 32909075; details: lowest Kd among nine lipids tested in vitro; cited from earlier work
[5] = % relative to agonist control GW501516 at the highest concentration, 95% confidence intervals in parentheses
[6] = 95% confidence intervals in parentheses
[7] = % relative to agonist control GW7647 at the highest concentration, 95% confidence intervals in parentheses

| Emax [1, 5] | EC50 [1, 6] | Emax [2, 7] | EC50 [2, 6] | Compound | other results |
| --- | --- | --- | --- | --- | --- |
| – | – | 86.6% | – | CC(C)(Sc1ccc(CCN(CCCCC2CCCCC2)C(=O)NC2CCCCC2)cc1)C(=O)O [GW7647] | – |
| – | – | 55.9% | 6.37 µM | CCCCCCCCCCCCCCCCCC(=O)O [C18, Octadecanoic acid] | – |
| – | – | 52.6% | 5.43 µM | CCCCCCCCCCCCCCCC(=O)O [C16, Hexadecanoic acid] | – |
| 41.3% | 22.3 µM | 58.9% | 5.04 µM | CCCCCCCCCCCCCCCCC(=O)O [C17, Heptadecanoic acid] | – |
| 23.7% | 25.6 µM | 36.8% | 9.6 µM | CCCCCCCCCCCCCCC(=O)O [C15, Pentadecanoic acid] | – |

The next lines start with the molecule.

| Compound | Emax [1, 5] | EC50 [1, 6] | Emax [2, 7] | EC50 [2, 6] | other results |
| --- | --- | --- | --- | --- | --- |
| CCC/C=C\CCCCCCCCCCCC(=O)O [C17:1 cis-13, (13Z)-heptadec-13-enoic acid] | 30.6% | 17.8 µM | 70% | 4.7 µM | Emax, maximum efficacy, PPARα [2, 7]: 69.86 (43, 96.7) a % |
| CCC(=O)NC[C@H](Cc1ccc(OCCc2nc(-c3ccccc3)oc2C)cc1)N/C(C)=C\C(=O)c1ccc(C(F)(F)F)cc1 [GW6471] | – | – | – | – | Reduction of PPAR agonist-mediated Angptl4 expression by the antagonist [3]: did not inhibit |
| CCCCCC[C@@H]1C[C@@H]1CCCCCCCCCC(=O)O [C18Δ1 cis-11, (11S,12R)-11,12-methyleneoctadecanoic acid] | 57% | 25.8 µM | 54.7% | 7.65 µM | Kd [4]: ~100 µM; Emax, maximum efficacy, PPARδ [1, 5]: 57.03 (52.5, 61.6) a % |
| CCCCCC[C@@H]1C[C@@H]1CCCCCCCC(=O)O [C16Δ1 cis-9, (9S,10R)-9,10-methylenehexadecanoic acid] | 58.1% | 22 µM | 62.3% | 12.2 µM | – |
| CCC/C=C\CCCCCCCCCC(=O)O [C15:1 cis-11, (11Z)-pentadec-11-enoic acid] | 18.9% | 25.7 µM | 26.6% | 12.8 µM | – |
| CCC[C@@H]1C[C@@H]1CCCCCCCCCC(=O)O [C15Δ1 cis-11, (11S,12R)-11,12-methylenepentadecanoic acid] | 14.9% | 25.6 µM | 26.3% | 14.1 µM | – |
| CCC[C@@H]1C[C@@H]1CCCCCCCCCCCC(=O)O [C17Δ1 cis-13, (13S,14R)-13,14-methyleneheptadecanoic acid] | 37.1% | 26.8 µM | 65% | 4.12 µM | Emax, maximum efficacy, PPARα [2, 7]: 65.01 (52.5, 77.5) a % |
| O=C(NCCS(=O)(=O)c1ccc(C(F)(F)F)cn1)c1ccc(Cl)cc1 [GSK3787] | – | – | – | – | Reduction of PPAR agonist-mediated Angptl4 expression by the antagonist [3]: ~50% |
| CCCCCCCC/C=C\CCCCCCCC(=O)O [C18:1 cis-9, (9Z)-octadec-9-enoic acid] | – | 18.5 µM | – | 0.91 µM | Emax [1]: 51.9%; Emax [2]: 52% |
| CCCCCC/C=C\CCCCCCCC(=O)O [C16:1 cis-9, (9Z)-hexadec-9-enoic acid] | 39.5% | 26.4 µM | 59.1% | 2.13 µM | – |
| CCCCCC/C=C\CCCCCCCCCC(=O)O [C18:1 cis-11, (11Z)-octadec-11-enoic acid] | 43.5% | 22 µM | 45.2% | 3.5 µM | – |
| CCCCCCCC[C@@H]1C[C@@H]1CCCCCCCC(=O)O [C18Δ1 cis-9, (9S,10R)-9,10-methyleneoctadecanoic acid] | ~74% | 27.1 µM | 51.4% | 5.23 µM | Emax, maximum efficacy, PPARδ [1, 5]: 73.56 (65.9, 81.2) b % |
| O=C(Nc1ccncc1)c1cc([N+](=O)[O-])ccc1Cl [T0070907] | – | – | – | – | Reduction of PPAR agonist-mediated Angptl4 expression by the antagonist [3]: ~50% |
